The NIST ThermoML archive (doi:10.1021/je060271a)
± gives the expanded uncertainty stated by the source.

Conditions: 323.15 K, Liquid, Vibrating tube method

CCCCCCC(=O)OCC(COC(=O)CCCCCC)(COC(=O)CCCCCC)COC(=O)CCCCCC [pentaerythritol tetraheptanoate]
mass density (25142 kPa): 971.7 ± 1.2 kg/m3
mass density (25168 kPa): 971.8 ± 1.2 kg/m3
mass density (25198 kPa): 971.9 ± 1.2 kg/m3
mass density (25224 kPa): 971.9 ± 1.2 kg/m3
mass density (25249 kPa): 971.7 ± 1.2 kg/m3
mass density (25275 kPa): 971.9 ± 1.2 kg/m3
mass density (25306 kPa): 971.9 ± 1.2 kg/m3
mass density (25330 kPa): 971.9 ± 1.2 kg/m3
mass density (25356 kPa): 971.9 ± 1.2 kg/m3
mass density (25439 kPa): 971.9 ± 1.2 kg/m3
mass density (25465 kPa): 972 ± 1.2 kg/m3
mass density (25496 kPa): 972 ± 1.2 kg/m3
mass density (25522 kPa): 972.1 ± 1.2 kg/m3
mass density (25549 kPa): 972 ± 1.2 kg/m3
mass density (25575 kPa): 972 ± 1.2 kg/m3
mass density (25607 kPa): 972.1 ± 1.2 kg/m3
mass density (25663 kPa): 972.2 ± 1.2 kg/m3
mass density (25691 kPa): 972.2 ± 1.2 kg/m3
mass density (25743 kPa): 972.1 ± 1.2 kg/m3
mass density (25775 kPa): 972.2 ± 1.2 kg/m3
mass density (25801 kPa): 972.2 ± 1.2 kg/m3
mass density (26029 kPa): 972.3 ± 1.2 kg/m3
mass density (26061 kPa): 972.3 ± 1.2 kg/m3
mass density (26121 kPa): 972.4 ± 1.2 kg/m3
mass density (26148 kPa): 972.5 ± 1.2 kg/m3
mass density (26175 kPa): 972.3 ± 1.2 kg/m3
mass density (26208 kPa): 972.5 ± 1.2 kg/m3
mass density (26235 kPa): 972.4 ± 1.2 kg/m3
mass density (26263 kPa): 972.6 ± 1.2 kg/m3
mass density (26296 kPa): 972.3 ± 1.2 kg/m3
mass density (26325 kPa): 972.4 ± 1.2 kg/m3
mass density (26352 kPa): 972.5 ± 1.2 kg/m3
mass density (26386 kPa): 972.5 ± 1.2 kg/m3
mass density (26413 kPa): 972.5 ± 1.2 kg/m3
mass density (26441 kPa): 972.4 ± 1.2 kg/m3
mass density (26475 kPa): 972.6 ± 1.2 kg/m3
mass density (26503 kPa): 972.6 ± 1.2 kg/m3
mass density (26531 kPa): 972.6 ± 1.2 kg/m3
mass density (26559 kPa): 972.6 ± 1.2 kg/m3
mass density (26594 kPa): 972.6 ± 1.2 kg/m3
mass density (26622 kPa): 972.6 ± 1.2 kg/m3
mass density (26658 kPa): 972.7 ± 1.2 kg/m3
mass density (26682 kPa): 972.6 ± 1.2 kg/m3
mass density (26717 kPa): 972.7 ± 1.2 kg/m3
mass density (26745 kPa): 972.7 ± 1.2 kg/m3
mass density (26901 kPa): 972.8 ± 1.2 kg/m3
mass density (26930 kPa): 972.9 ± 1.2 kg/m3
mass density (26959 kPa): 972.9 ± 1.2 kg/m3
mass density (26995 kPa): 972.9 ± 1.2 kg/m3
mass density (27304 kPa): 973.1 ± 1.2 kg/m3
mass density (27340 kPa): 973.1 ± 1.2 kg/m3
mass density (27371 kPa): 973 ± 1.2 kg/m3
mass density (27401 kPa): 973.1 ± 1.2 kg/m3
mass density (27437 kPa): 973.1 ± 1.2 kg/m3
mass density (27468 kPa): 973.1 ± 1.2 kg/m3
mass density (27498 kPa): 973 ± 1.2 kg/m3
mass density (27534 kPa): 973.2 ± 1.2 kg/m3
mass density (27632 kPa): 973.3 ± 1.2 kg/m3
mass density (27663 kPa): 973.3 ± 1.2 kg/m3
mass density (27694 kPa): 973.3 ± 1.2 kg/m3
mass density (27794 kPa): 973.3 ± 1.2 kg/m3
mass density (27926 kPa): 973.5 ± 1.2 kg/m3
mass density (27963 kPa): 973.5 ± 1.2 kg/m3
mass density (27996 kPa): 973.5 ± 1.2 kg/m3
mass density (28065 kPa): 973.4 ± 1.2 kg/m3
mass density (28096 kPa): 973.6 ± 1.2 kg/m3
mass density (28128 kPa): 973.5 ± 1.2 kg/m3
mass density (28160 kPa): 973.5 ± 1.2 kg/m3
mass density (28199 kPa): 973.6 ± 1.2 kg/m3
mass density (28231 kPa): 973.6 ± 1.2 kg/m3
mass density (28270 kPa): 973.6 ± 1.2 kg/m3
mass density (28302 kPa): 973.6 ± 1.2 kg/m3
mass density (28334 kPa): 973.7 ± 1.2 kg/m3
mass density (28471 kPa): 973.7 ± 1.2 kg/m3
mass density (28511 kPa): 973.9 ± 1.2 kg/m3
mass density (28544 kPa): 973.6 ± 1.2 kg/m3
mass density (28577 kPa): 973.8 ± 1.2 kg/m3
mass density (28617 kPa): 973.8 ± 1.2 kg/m3
mass density (28650 kPa): 973.8 ± 1.2 kg/m3
mass density (28689 kPa): 973.9 ± 1.2 kg/m3
mass density (28723 kPa): 973.8 ± 1.2 kg/m3
mass density (28864 kPa): 973.9 ± 1.2 kg/m3
mass density (29014 kPa): 974 ± 1.2 kg/m3
mass density (29565 kPa): 974.4 ± 1.2 kg/m3
mass density (29607 kPa): 974.4 ± 1.2 kg/m3
mass density (29642 kPa): 974.4 ± 1.2 kg/m3
mass density (29686 kPa): 974.4 ± 1.2 kg/m3
mass density (29724 kPa): 974.5 ± 1.2 kg/m3
mass density (29761 kPa): 974.5 ± 1.2 kg/m3
mass density (29798 kPa): 974.5 ± 1.2 kg/m3
mass density (29834 kPa): 974.6 ± 1.2 kg/m3
mass density (29878 kPa): 974.6 ± 1.2 kg/m3
mass density (29915 kPa): 974.6 ± 1.2 kg/m3
mass density (29959 kPa): 974.6 ± 1.2 kg/m3
mass density (29995 kPa): 974.7 ± 1.2 kg/m3
mass density (30032 kPa): 974.6 ± 1.2 kg/m3
mass density (30076 kPa): 974.8 ± 1.2 kg/m3
mass density (30114 kPa): 974.7 ± 1.2 kg/m3
mass density (30151 kPa): 974.7 ± 1.2 kg/m3
mass density (30237 kPa): 974.8 ± 1.2 kg/m3
mass density (30274 kPa): 974.7 ± 1.2 kg/m3
mass density (30312 kPa): 974.8 ± 1.2 kg/m3
mass density (30358 kPa): 974.7 ± 1.2 kg/m3
mass density (30396 kPa): 974.8 ± 1.2 kg/m3
mass density (30434 kPa): 974.9 ± 1.2 kg/m3
mass density (32025 kPa): 975.7 ± 1.2 kg/m3
mass density (32076 kPa): 975.7 ± 1.2 kg/m3
mass density (32119 kPa): 975.8 ± 1.2 kg/m3
mass density (32170 kPa): 975.9 ± 1.2 kg/m3
mass density (32213 kPa): 975.8 ± 1.2 kg/m3
mass density (32256 kPa): 975.9 ± 1.2 kg/m3
mass density (32308 kPa): 976 ± 1.2 kg/m3
